From publication PMC7370100, “In Vitro Assessment of the Genotoxic Hazard of Novel Hydroxamic Acid- and Benzamide-Type Histone Deacetylase Inhibitors (HDACi)” (International Journal of Molecular Sciences, 2020)
Read-outs that look alike come from different tables or passages of the source.

Assays:
[1] = tested on: SH-SY5Y neuroblastoma cells; assay: Neutral red assay (cytotoxicity), SH-SY5Y cells; assay type: cell-based, human
Method: (§1) V79 hamster lung cells, which are recommended in the OECD toxicology guidelines for hazard identification (i.e., cytotoxicity and genotoxicity) of chemicals, were purchased from the German Collection of Microorganisms and Cell Cultures (DSMZ, Braunschweig, Germany). They were cultured in Dulbecco´s modified Eagle medium and Ham´s F12 medium (DMEM/F12) (PromoCell, Heidelberg, Germany) containing 10% fetal calf serum at 37 °C in a humidified atmosphere containing 5% CO2. VC8 hamster cells were defective in DNA double-strand break (DSB) repair by homologous recombination (HR) due to the lack of functional BRCA2 protein [69, 70]. VC8 cells were provided by B. Kaina (Institute of Toxicology, Mainz, Germany). Nucleotide excision repair defective XPA and CSB deficient cells were also provided by B. Kaina and were described before. They were grown in DMEM containing 10% fetal calf serum. Human neuroblastoma cells (IMR-32 and SH-SY5Y) were purchased from the German Collection of Microorganisms and Cell Cultures (DSMZ, Braunschweig, Germany) and were used as a model of malignant cells. They were grown in DMEM or RPMI (Roswell park memorial institute) medium, respectively, containing 10% fetal calf serum. If not stated otherwise, HDACi were added to the exponentially growing cells and analyses were performed 6 h to 72 h later.
(§2) Cell viability was determined using the Alamar blue assay, which reflected the mitochondrial activity. Viable cells were characterized by an effective mitochondrial metabolization of the non-fluorescent dye resazurin (Sigma, Steinheim, Germany) to fluorescent resorufin (excitation: 535 nm, emission: 590 nm). Relative viability in the untreated control was set to 100%. In addition, the Neutral red assay, which measures the integrity of lysosomal membranes, was used to monitor cytotoxicity. To this end, cells were incubated with the Neutral red solution (0.01%) in an atmosphere containing 5% CO2 for 90 min before they were fixed (1% formaldehyde/1% CaCl2). Afterwards, the Neutral red that was taken up by the cells was extracted (50% ethanol/1% of acetic acid, 15 min at room temperature (RT)) and absorbance (540 nm) was measured. If not stated otherwise, data are shown as the mean ± standard deviation (SD) of two to three independent experiments each performed in quadruplicate. Approximate IC50 (~IC50, see Supplementary Table S1) were calculated from the corresponding dose-response curves.

V79 cells [2] = assay: Nuclear γH2AX foci and pan-staining (immunocytochemistry); assay type: cell-based, hamster; settings: for > 5 < 30 Foci [%] / Pan-Stained [%] / ≤ 5 Foci [%] (cells with γH2AX foci) / ≥ 30 Foci [%] / formation of nuclear γH2AX foci: 24 h; for > 5 < 30 Foci [%] / Pan-Stained [%] / ≤ 5 Foci [%] (cells with γH2AX foci) / ≥ 30 Foci [%] / gH2AX Foci / gH2AX Pan-Stain: V79; for formation of nuclear γH2AX foci: V79, in words; for gH2AX Foci / gH2AX Pan-Stain: summary grade; on gH2AX Foci: key: −: no effect; 0: weak effect; +: moderate effect; ++: strong effect; +++: very strong effect as compared to untreated controls; on gH2AX Pan-Stain: key: −: no effect; 0: weak effect; +: moderate effect; ++: strong effect; +++: very strong effect as compared to untreated controls
Method: The frequency of nuclear foci formed by S139 phosphorylated H2AX (γH2AX foci), which is a surrogate marker of DNA damage, especially DNA double-strand breaks (DSBs), was assayed by immunocytochemistry-based analysis. […] The appearance of nuclear 53BP1 foci, which is another marker of DSBs, was also determined by immunocytochemistry. Cells were fixed with 4% formaldehyde in phosphate-buffered saline (PBS) (MERCK, Darmstadt, Germany) (15 min, RT) followed by incubation with ice-cold methanol (≥20 min, −20 °C). After blocking (1 h, RT, blocking solution: 5% BSA (MERCK, Darmstadt, Germany) in PBS/0.3% Triton X-100 (Sigma, Steinheim, Germany)), incubation with γH2AX antibody and 53BP1 antibody was performed (1:500, overnight, 4 °C). After incubation with the secondary fluorescence-labeled antibody (1:500, 1 h, RT, in the dark), cells were mounted in Vectashield (Vector Laboratories (Burlingame, CA, USA)) containing DAPI. The number of nuclear γH2AX and 53BP1 foci was scored (Olympus BX43 fluorescence microscope). Only nuclei with distinct foci were evaluated and γH2AX pan-stained nuclei were excluded from the foci analyses. Data are shown as the mean ± SEM of three independent experiments with ≥50 nuclei analyzed per experimental condition.

V79 cells [3] = assay: DNA damage response (DDR) activation by Western blot; assay type: cell-based, hamster; settings: for activation of DDR factors (γH2AX, p-p53, p-Chk1, p-Chk2, p-Kap1 protein levels): V79, Western blot, in words; for DDR Activation: summary grade, V79; on DDR Activation: key: −: no effect; 0: weak effect; +: moderate effect; ++: strong effect; +++: very strong effect as compared to untreated controls
Method: (§3) The activation of the DDR was investigated by Western blot analysis. To this end, total cell extracts were obtained by lysing an equal number of cells in Roti®-Load buffer (Carl Roth GmbH (Karlsruhe, Germany)) (5 min, RT). After sonication (EpiShear™ Probe sonicator, Active Motif, La Hulpe, Belgium), proteins were denatured by heating (5 min, 95 °C) and separated by SDS-PAGE (6% or 12.5% gel). Proteins were transferred onto a nitrocellulose membrane (GE Healthcare, Little Chalfont, UK) via the Protean Mini Cell System (BioRad (München, Germany)). The membrane was blocked with 5% non-fat milk in TBS/0.1% Tween 20 (MERCK, Darmstadt, Germany) (2 h, RT) and incubated with the corresponding primary antibody (1:1000, overnight, 4 °C). After washing with TBS/0.1% Tween 20, the secondary (peroxidase-conjugated) antibody was added (1:2000, 2 h, RT). The Fusion FX7 imaging system (PeqLab, Erlangen, Germany) was used for visualization of the bound antibodies. The following primary antibodies were used: Anti-Ser15 phosphorylated protein 53 (p-p53), anti-Talin-1, anti-Ser 345 checkpoint kinase 1 (p-Chk1), anti-cleaved caspase 3 and 7 (Cell Signaling, Beverly, MA, USA), anti-Ser824 phosphorylated Krüppel-associated box domain (KRAB)-associated protein-1 (p-Kap1), anti-Ser1981 phosphorylated ataxia telangiectasia mutated (pATM) and anti-Thr68 phosphorylated checkpoint kinase-2 (p-Chk2) (both Abcam, Cambridge, MA, USA), anti-Ser139 phosphorylated histone H2AX (γH2AX, Millipore, Billerica, MA, USA), and anti-β-actin (Santa Cruz, CA, USA). As secondary antibodies, horseradish peroxidase-conjugated secondary antibodies goat anti-mouse IgG and mouse anti-rabbit IgG (Rockland, Limerick, PA, USA) (2 h, RT) were used.

V79 hamster lung cells = assay: Alamar blue assay (cell viability), V79 cells; assay type: cell-based
Method: as §1, §2

[4] = tested on: VC8 hamster cells (BRCA1/2 defect); assay: Viability of DSB repair defective VC8 versus wild-type V79 cells (Alamar blue); assay type: cell-based; settings: summary grade, V79 versus VC8; further: key: −: no effect; 0: weak effect; +: moderate effect; ++: strong effect; +++: very strong effect as compared to untreated controls
Method: as §1, §2

[5] = tested on: SH-SY5Y neuroblastoma cells; assay: Alamar blue assay (cell viability), SH-SY5Y cells; assay type: cell-based, human
Method: as §1, §2

V79 cells [6] = assay: Caspase-3/-7 cleavage by Western blot (apoptosis); assay type: cell-based, hamster; settings: for activation of caspase-3 and -7: 10 µM, 24 h, V79, in words; for Apoptosis: summary grade, calculated on the basis of caspase-3,-7 cleavage and SubG1 population, V79
Method: as §3

[7] = Homo sapiens, SH-SY5Y, 24 h, approximate IC50, read-out: IC50 - 24 h Treatment, SH-SY5Y
[8] = Homo sapiens, SH-SY5Y, 72 h, approximate IC50, read-out: IC50 - 72 h Treatment, SH-SY5Y
[9] = V79, 24 h after drug treatment (values match Alamar blue data of Table S1), read-out: Viability (IC50) 24 h
[10] = V79, 72 h after drug treatment (values match Alamar blue data of Table S1), read-out: Viability (IC50) 72 h
[11] = 24 h, approximate IC50, read-out: IC50 - 24 h Treatment, SH-SY5Y
[12] = 72 h, approximate IC50, read-out: IC50 - 72 h Treatment, SH-SY5Y

| Compound | > 5 < 30 Foci [%] (V79 cells [2]; 10 µM) | Pan-Stained [%] (V79 cells [2]; 10 µM) | ≤ 5 Foci [%] (cells with γH2AX foci) (V79 cells [2]; 10 µM) | ≥ 30 Foci [%] (V79 cells [2]; 10 µM) | > 5 < 30 Foci [%] (V79 cells [2]; 50 µM) | Pan-Stained [%] (V79 cells [2]; 50 µM) | ≤ 5 Foci [%] (cells with γH2AX foci) (V79 cells [2]; 50 µM) | ≥ 30 Foci [%] (V79 cells [2]; 50 µM) | formation of nuclear γH2AX foci (V79 cells [2]) | gH2AX Foci (V79 cells [2]) | gH2AX Pan-Stain (V79 cells [2]) | activation of DDR factors (γH2AX, p-p53, p-Chk1, p-Chk2, p-Kap1 protein levels) (V79 cells [3]) | DDR Activation (V79 cells [3]) | IC50 (V79 hamster lung cells; [9]) | IC50 (V79 hamster lung cells; [10]) | DSB Repair def. Cells [4] | IC50 [5, 7] | activation of caspase-3 and -7 (V79 cells [6]) | Apoptosis (V79 cells [6]) | > 5 < 30 Foci [%] (V79 cells [2]; 2 µM) | further results |
| --- | --- | --- | --- | --- | --- | --- | --- | --- | --- | --- | --- | --- | --- | --- | --- | --- | --- | --- | --- | --- | --- |
| Nc1ccccc1NC(=O)c1ccc(CNC(=O)OCc2cccnc2)cc1 [Entinostat, entinostat, reference compound] | 43.6% | 0.4% | 45.2% | 10.8% | 39.4% | 3.2% | 45.3% | 12.2% | relatively low number of γH2AX foci | + | + | substantial increase in γH2AX levels but no, or only a minor, increase in p-p53 and p-Chk1/p-Chk2 levels | + | > 50 µM | 7 µM | + | > 50 µM | only activated caspase-7 but not caspase-3 | 0 | – | IC50 [1, 7]: > 50 µM; IC50 [1, 8]: 9 µM; > 5 < 30 Foci [%] (V79 cells [2]; 100 µM): 47.2%; Pan-Stained [%] (V79 cells [2]; 100 µM): 4.6%; ≤ 5 Foci [%] (cells with γH2AX foci) (V79 cells [2]; 100 µM): 41.7%; ≥ 30 Foci [%] (V79 cells [2]; 100 µM): 6.5%; IC50 [5, 8]: 8 µM |
| CN(C)c1ccc(C(=O)N(CC(=O)NCc2ccccc2)Cc2ccc(C(=O)NO)cc2)cc1 [DDK137] | 40.1% | 0.0% | 56.4% | 3.5% | 36.8% | 14.1% | 31.3% | 17.8% | stimulate the formation of γH2AX foci only at a high dose of 50 µM | + | + | substantial increase in γH2AX levels but no, or only a minor, increase in p-p53 and p-Chk1/p-Chk2 levels | + | 33 µM | 11 µM | + | – | activation of caspase-3 and -7 | + | 38.5% | IC50 [1, 11]: > 50 µM; IC50 [1, 12]: 1 µM; Pan-Stained [%] (V79 cells [2]; 2 µM): 0.0%; ≤ 5 Foci [%] (cells with γH2AX foci) (V79 cells [2]; 2 µM): 60.8%; ≥ 30 Foci [%] (V79 cells [2]; 2 µM): 0.7%; less cytotoxic to non-malignant V79 cells than to malignant neuroblastoma cells (IC50 based) (V79 hamster lung cells; selection criterion, IC50 of Table S1): ≥ 10 fold; IC50 [5, 11]: 50 µM; IC50 [5, 12]: 0.9 µM |
| O=C(CCCCCCC(=O)Nc1ccccc1)NO [Vorinostat, vorinostat, reference compound] | 18.5% | 3.2% | 75.9% | 2.4% | 34.2% | 26.7% | 23.6% | 15.6% | – | + | ++ | substantial increase in γH2AX levels but no, or only a minor, increase in p-p53 and p-Chk1/p-Chk2 levels | + | – | – | ++ | 33 µM | activation of caspase-3 and -7 | ++ | 54.7% | Pan-Stained [%] (V79 cells [2]; 2 µM): 0.0%; ≤ 5 Foci [%] (cells with γH2AX foci) (V79 cells [2]; 2 µM): 39.3%; ≥ 30 Foci [%] (V79 cells [2]; 2 µM): 6.0% |
